Experimental findings from patent US20260297042A1, “BIARYLAMIDE DERIVATIVES AND THEIR USE AS PKMYT1 INHIBITORS” (CANCER RESEARCH TECHNOLOGY LIMITED, priority 2023, published 2026) are described below.

The target of one test is T1, Human PKMYT1 (Homo sapiens, UniProt Q99640).
T1 construct: Human PKMYT1 75-362 was cloned as a TEV cleavable 6xHis fusion; 6xHis (TEV cleavable) (cleaved yes); made in house; host or cells: bacterial cells
T1 sequence (Q99640 75-362): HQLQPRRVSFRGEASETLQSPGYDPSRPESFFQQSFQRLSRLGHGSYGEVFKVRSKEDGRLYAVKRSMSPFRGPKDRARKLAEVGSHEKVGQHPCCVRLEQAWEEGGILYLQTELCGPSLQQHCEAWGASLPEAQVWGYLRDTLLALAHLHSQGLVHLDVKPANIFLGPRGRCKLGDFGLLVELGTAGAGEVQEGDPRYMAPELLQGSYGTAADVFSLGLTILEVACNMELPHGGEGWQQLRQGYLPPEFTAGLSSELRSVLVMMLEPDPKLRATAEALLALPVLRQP
The test is described as follows: PKMYT1 biochemical ADP-Glo enzymatic assay. Conditions: ADP-Glo; 15 nM PKMYT1 kinase domain, 500 µM ATP, 60 minutes at 26° C.; banded. Put shortly:
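Intrinsic ATPase activity of E. coli-expressed, tag-cleaved human PKMYT1 kinase domain (75-362), 15 nM, with 500 µM ATP in HEPES pH 7.5/MgCl2/EGTA/Brij-35, 1% DMSO, 60 min at 26 °C. ADP formed was read by ADP-Glo Max luminescence; IC50 from 10-point, 3-fold dilution curves.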

In the next test the target is T2, WEE1 (Homo sapiens, UniProt P30291).
T2 construct: purchased Thermo Fisher PR7373A
T2 sequence (P30291 whole entry): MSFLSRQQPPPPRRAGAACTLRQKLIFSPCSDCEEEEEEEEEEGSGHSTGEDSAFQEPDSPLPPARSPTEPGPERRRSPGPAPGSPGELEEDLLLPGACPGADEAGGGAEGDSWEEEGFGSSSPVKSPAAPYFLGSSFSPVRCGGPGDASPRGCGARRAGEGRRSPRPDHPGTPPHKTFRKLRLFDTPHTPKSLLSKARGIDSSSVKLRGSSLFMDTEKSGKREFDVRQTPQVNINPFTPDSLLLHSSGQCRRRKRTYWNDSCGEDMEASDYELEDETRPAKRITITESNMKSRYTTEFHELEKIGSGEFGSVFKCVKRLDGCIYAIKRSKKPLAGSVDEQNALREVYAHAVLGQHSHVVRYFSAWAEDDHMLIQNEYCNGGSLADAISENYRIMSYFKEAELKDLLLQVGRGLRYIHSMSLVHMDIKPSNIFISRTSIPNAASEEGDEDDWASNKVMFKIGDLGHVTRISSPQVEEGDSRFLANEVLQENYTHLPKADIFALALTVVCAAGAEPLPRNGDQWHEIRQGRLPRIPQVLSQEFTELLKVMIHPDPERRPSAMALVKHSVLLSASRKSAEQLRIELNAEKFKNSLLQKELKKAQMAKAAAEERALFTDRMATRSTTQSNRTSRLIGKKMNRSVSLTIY
In words: Selectivity versus WEE1 assay (ADP-Glo enzymatic assay). Type of test: biochemical. Conditions: banded; for IC50: ADP-Glo, 15 nM WEE1, 60 minutes at 26° C.; for PKMYT1 vs. WEE1 selectivity: fold difference in selectivity for PKMYT1 over WEE1, ">N" = at least in this band but could be higher. Put shortly:
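Kinase at 15 nM final in 50 mM HEPES pH 7.5, 10 mM MgCl2, 1 mM EGTA, 0.01% Brij-35, 1% DMSO was started with 30 µM ATP and run 60 min at 26° C. ADP formed was read by ADP-Glo luminescence; IC50 came from dose-response curves.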

Structures can show the parent of a compound that is named as a salt.

In general, IC50 refers to the concentration that gives 50% inhibition. High values mean a need for much substance, low ones inhibition by little substance. Take `COCc1cc(Nc2ncc(C(=O)Nc3c(C)ccc(O)c3C)s2)nn1C` [BAA-252, N-(3-hydroxy-2,6-dimethylphenyl)-2-((5-(methoxymethyl)-1-methyl-1H-pyrazol-3-yl)amino)thiazole-5-carboxamide]: the IC50 on Human PKMYT1 was in the range of 50 to 1000 nM. Besides, on WEE1, the IC50 lay within 1000 to 11000 nM and the “PKMYT1 vs. WEE1 selectivity” value is reported as “X (100-<1000 fold)”.

`Cc1ccc(O)c(C)c1NC(=O)c1cnc(Nc2cc(C(=O)OC(C)(C)C)n(C)n2)s1` [BAA-253, tert-butyl 3-((5-((3-hydroxy-2,6-dimethylphenyl)carbamoyl)thiazol-2-yl)amino)-1-methyl-1H-pyrazole-5-carboxylate]: the IC50 at Human PKMYT1 was 50 to 1000 nM. In addition, on WEE1, the IC50 was > 11000 nM and the “PKMYT1 vs. WEE1 selectivity” value is on record as “X (100-<1000 fold)”.

Take `Cc1ccc(O)c(C)c1NC(=O)c1cnc(Nc2nn(C)cc2C(N)=O)s1` [BAA-254, 2-((4-carbamoyl-1-methyl-1H-pyrazol-3-yl)amino)-N-(3-hydroxy-2,6-dimethylphenyl)thiazole-5-carboxamide]: the IC50 was 50 to 1000 nM on Human PKMYT1 and > 11000 nM on WEE1. Further, the “PKMYT1 vs. WEE1 selectivity” value on WEE1 was “Y (1000-5000 fold)”.

`COCCn1nc(Nc2ncc(C(=O)Nc3c(C)ccc(O)c3C)s2)cc1C` [BAA-255, N-(3-hydroxy-2,6-dimethylphenyl)-2-((1-(2-methoxyethyl)-5-methyl-1H-pyrazol-3-yl)amino)thiazole-5-carboxamide] had an IC50 against Human PKMYT1 of 50 to 1000 nM. Moreover, at WEE1, the half-maximal inhibitory concentration (IC50) was > 11000 nM and the “PKMYT1 vs. WEE1 selectivity” value is given as “X (100-<1000 fold)”.

In the case of `Cc1ccc(O)c(C)c1NC(=O)c1cnc(Nc2cc(C(C)(C)O)n(C)n2)s1` [BAA-256, N-(3-hydroxy-2,6-dimethylphenyl)-2-((5-(2-hydroxypropan-2-yl)-1-methyl-1H-pyrazol-3-yl)amino)thiazole-5-carboxamide], the IC50 on Human PKMYT1 is < 50 nM. At WEE1, the IC50 lay within 1000 to 11000 nM and the “PKMYT1 vs. WEE1 selectivity” value is reported as “W (10-<100 fold)”.

Regarding `Cc1ccc(O)c(C)c1NC(=O)c1cnc(Nc2nccs2)s1` [BAA-257, N-(3-hydroxy-2,6-dimethylphenyl)-2-(thiazol-2-ylamino)thiazole-5-carboxamide], on Human PKMYT1, the IC50 is < 50 nM. In addition, at WEE1, the IC50 is > 11000 nM and the “PKMYT1 vs. WEE1 selectivity” value is listed as “Y (1000-5000 fold)”.

For the compound `Cc1nnc(Nc2ncc(C(=O)Nc3c(C)ccc(O)c3C)s2)o1` [BAA-258, N-(3-hydroxy-2,6-dimethylphenyl)-2-((5-methyl-1,3,4-oxadiazol-2-yl)amino)thiazole-5-carboxamide], the values for the IC50 against Human PKMYT1 and against WEE1 were 1000 to 11000 nM and > 11000 nM, respectively. For the same compound, the “PKMYT1 vs. WEE1 selectivity” value on WEE1 is “W (10-<100 fold)”.

Turning to `Cc1ccc(O)c(C)c1NC(=O)c1cnc(Nc2cccc(C(=O)NC(C(C)C)C(F)(F)F)c2)s1` (stereo not drawn) [BAA-259, N-(3-hydroxy-2,6-dimethylphenyl)-2-((3-((1,1,1-trifluoro-3-methylbutan-2-yl)carbamoyl)phenyl)amino)thiazole-5-carboxamide], the IC50 on Human PKMYT1 lay within 50 to 1000 nM. Further, at WEE1, the IC50 was > 11000 nM and the “PKMYT1 vs. WEE1 selectivity” value is recorded as “X (100-<1000 fold)”.

Take `Cc1ccc(O)c(C)c1NC(=O)c1cnc(Nc2ccnn2CCN)s1` [BAA-260, 2-((1-(2-aminoethyl)-1H-pyrazol-5-yl)amino)-N-(3-hydroxy-2,6-dimethylphenyl)thiazole-5-carboxamide]: the IC50 against Human PKMYT1 was in the range of 50 to 1000 nM. Further, at WEE1, the IC50 was > 11000 nM and the “PKMYT1 vs. WEE1 selectivity” value is recorded as “W (10-<100 fold)”.

With `Cc1ccc(O)c(C)c1NC(=O)c1cnc(Nc2cccc(C(=O)N3CC(F)(F)C(F)(F)C3)c2)s1` [BAA-261, N-(3-hydroxy-2,6-dimethylphenyl)-2-((3-(3,3,4,4-tetrafluoropyrrolidine-1-carbonyl)phenyl)amino)thiazole-5-carboxamide], the IC50 was 50 to 1000 nM at Human PKMYT1 and > 11000 nM against WEE1. Also, the “PKMYT1 vs. WEE1 selectivity” value on WEE1 is given as “X (100-<1000 fold)”.

With `Cc1cnc(Nc2ncc(C(=O)Nc3c(C)ccc(O)c3C)s2)s1` [BAA-262, N-(3-hydroxy-2,6-dimethylphenyl)-2-((5-methylthiazol-2-yl)amino)thiazole-5-carboxamide], at Human PKMYT1, the IC50 was < 50 nM. At WEE1, the IC50 was > 11000 nM and the “PKMYT1 vs. WEE1 selectivity” value was “X (100-<1000 fold)”.

`Cc1nnc(Nc2ncc(C(=O)Nc3c(C)ccc(O)c3C)s2)s1` [BAA-263, N-(3-hydroxy-2,6-dimethylphenyl)-2-((5-methyl-1,3,4-thiadiazol-2-yl)amino)thiazole-5-carboxamide]: at Human PKMYT1, the IC50 fell in the range of 50 to 1000 nM. In addition, on WEE1, the IC50 is > 11000 nM and the “PKMYT1 vs. WEE1 selectivity” value is listed as “X (100-<1000 fold)”.

For `Cc1csc(Nc2ncc(C(=O)Nc3c(C)ccc(O)c3C)s2)n1` [BAA-264, N-(3-hydroxy-2,6-dimethylphenyl)-2-((4-methylthiazol-2-yl)amino)thiazole-5-carboxamide], the figures for the half-inhibitory concentration (IC50) on Human PKMYT1 and against WEE1 were < 50 nM and > 11000 nM, respectively. Moreover, the “PKMYT1 vs. WEE1 selectivity” value at WEE1 is reported as “X (100-<1000 fold)”.

As to `Cc1ccc(O)c(C)c1NC(=O)c1cnc(Nc2ncn(C)n2)s1` [BAA-265, N-(3-hydroxy-2,6-dimethylphenyl)-2-((1-methyl-1H-1,2,4-triazol-3-yl)amino)thiazole-5-carboxamide], on Human PKMYT1, the IC50 was < 50 nM. On WEE1, the IC50 is > 11000 nM and the “PKMYT1 vs. WEE1 selectivity” value was “X (100-<1000 fold)”.

For `Cc1ccc(O)c(C)c1NC(=O)c1cnc(Nc2nc(C)c(C)s2)s1` [BAA-266, 2-((4,5-dimethylthiazol-2-yl)amino)-N-(3-hydroxy-2,6-dimethylphenyl)thiazole-5-carboxamide], the IC50 is 50 to 1000 nM on Human PKMYT1 and > 11000 nM against WEE1. On WEE1, the “PKMYT1 vs. WEE1 selectivity” value was “X (100-<1000 fold)”.

As to `Cc1ccc(O)c(C)c1NC(=O)c1cnc(Nc2nn(C)c3cc(Br)ccc23)s1` [BAA-267, 2-((6-bromo-1-methyl-1H-indazol-3-yl)amino)-N-(3-hydroxy-2,6-dimethylphenyl)thiazole-5-carboxamide], on Human PKMYT1, the IC50 lay within 50 to 1000 nM. Also, at WEE1, the 50% inhibitory concentration (IC50) was > 11000 nM and the “PKMYT1 vs. WEE1 selectivity” value was “X (100-<1000 fold)”.

In the case of `Cc1cn(C2CN(C(=O)OC(C)(C)C)C2)nc1Nc1ncc(C(=O)Nc2c(C)ccc(O)c2C)s1` [BAA-272, tert-butyl 3-(3-((5-((3-hydroxy-2,6-dimethylphenyl)carbamoyl)thiazol-2-yl)amino)-4-methyl-1H-pyrazol-1-yl)azetidine-1-carboxylate], the IC50 on Human PKMYT1 is < 50 nM. In addition, on WEE1, the IC50 is 50 to 1000 nM and the “PKMYT1 vs. WEE1 selectivity” value is “W (10-<100 fold)”.

For the compound `Cc1cn(C2CNC2)nc1Nc1ncc(C(=O)Nc2c(C)ccc(O)c2C)s1` [BAA-273, 2-((1-(azetidin-3-yl)-4-methyl-1H-pyrazol-3-yl)amino)-N-(3-hydroxy-2,6-dimethylphenyl)thiazole-5-carboxamide hydrochloride], on Human PKMYT1, the IC50 was < 50 nM. In addition, on WEE1, the IC50 lay within 50 to 1000 nM and the “PKMYT1 vs. WEE1 selectivity” value is on record as “W (10-<100 fold)”.

`Cc1ccc(O)c(C)c1NC(=O)c1cnc(Nc2ccc(S(C)(=O)=O)cc2)s1` [BAA-275, N-(3-Hydroxy-2,6-dimethylphenyl)-2-((4-(methylsulfonyl)phenyl)amino)thiazole-5-carboxamide]: the IC50 is < 50 nM against Human PKMYT1 and > 11000 nM against WEE1. In addition, the “PKMYT1 vs. WEE1 selectivity” value at WEE1 is recorded as “X (100-<1000 fold)”.

`Cc1ccc(O)c(C)c1NC(=O)c1cnc(Nc2cccc(S(C)(=O)=O)c2)s1` [BAA-276, N-(3-hydroxy-2,6-dimethylphenyl)-2-((3-(methylsulfonyl)phenyl)amino)thiazole-5-carboxamide]: at Human PKMYT1, the IC50 was < 50 nM. At WEE1, the IC50 is > 11000 nM and the “PKMYT1 vs. WEE1 selectivity” value is reported as “Y (1000-5000 fold)”.

The compound `Cc1ccc(O)c(C)c1NC(=O)c1cnc(Nc2ccc(F)cc2F)s1` [BAA-277, 2-((2,4-difluorophenyl)amino)-N-(3-hydroxy-2,6-dimethylphenyl)thiazole-5-carboxamide] showed an IC50 against Human PKMYT1 of 50 to 1000 nM. At WEE1, the IC50 is > 11000 nM and the “PKMYT1 vs. WEE1 selectivity” value is “X (100-<1000 fold)”.

Compound `Cc1ccc(O)c(C)c1NC(=O)c1cnc(Nc2ccc(C(F)(F)F)cc2)s1` [BAA-278, N-(3-hydroxy-2,6-dimethylphenyl)-2-((4-(trifluoromethyl)phenyl)amino)thiazole-5-carboxamide] came in with an IC50 against Human PKMYT1 of 1000 to 11000 nM. Also, on WEE1, the IC50 is > 11000 nM and the “PKMYT1 vs. WEE1 selectivity” value is reported as “W (10-<100 fold)”.

As for `Cc1ccc(O)c(C)c1NC(=O)c1cnc(Nc2ncc(C(F)(F)F)cn2)s1` [BAA-279, N-(3-hydroxy-2,6-dimethylphenyl)-2-((5-(trifluoromethyl)pyrimidin-2-yl)amino)thiazole-5-carboxamide], the IC50 at Human PKMYT1 is < 50 nM; on WEE1, > 11000 nM. Besides, the “PKMYT1 vs. WEE1 selectivity” value on WEE1 was “Y (1000-5000 fold)”.
